Laboratory results as given in US20160010138A1, “RAPID DETERMINATION OF MICROBIAL DROWTH AND ANTIMICROBIAL SUSEPTABILITY” (priority 2013, published 2016).
Where two headings read alike, the source gives them in different places.

How the values were obtained:
S. maltophilia = test: Respiratory/metabolic activity indicator labeling (2-NBDG uptake); type: cell-based; conditions: overnight refrigerator culture; negative control (does not metabolize glucose)
From the text: (§1) Physiologic indicators of active bacteria include indicators of growth, responsiveness to external stimulus, transcription, translation, energy dependent activity, enzyme activity, and an intact permeability barrier. The indicators tested experimentally were grouped according to the following functional categories of physiologic states to which they are responsive, which included indicators of respiratory and metabolic activity, and membrane integrity.
(§2) 2-NBDG (Molecular Probes) is a fluorescent derivative (green channel) of D-glucose that is internalized by active bacteria.

K. pneumoniae = test: as above; type: cell-based; conditions: overnight refrigerator stock culture; approximately 1 min of exposure to 1 μM
From the text: as §1, §2

E. coli [1] = test: as above; type: cell-based; conditions: overnight refrigerator stock culture; approximately 1 min of exposure to 1 μM
From the text: as §1, §2

S. aureus = test: as above; type: cell-based; conditions: overnight refrigerator culture, viability independently verified
From the text: as §1, §2

H. influenzae = test: as above; type: cell-based; conditions: overnight refrigerator culture, viability independently verified
From the text: as §1, §2

E. coli [2] = test: Membrane potential indicator, red:green fluorescence ratio; type: cell-based; conditions: O/N refrigerator stock vs CCCP-treated E. coli
From the text: as §1
Active bacterial cells maintain a proton gradient across their cell membranes, creating a membrane potential that may be measured using fluorescent dyes. However, the dyes used in this study to evaluate membrane potential are toxic to bacteria and can only be used as an endpoint assay.
DiOC2(3) (Molecular Probes) is a dye that fluoresces in the red channel when it is highly concentrated and self-associates in cells with an intact membrane potential. […] The red:green fluorescence ratio is used to normalize the fluorescence results of cells with differing sizes. Carbonylcyanide-m-chlorophenylhydrazone (CCCP) is a proton ionophore that disrupts the proton gradient and was used to treat E. coli cells in an experimental sample that was compared to an untreated overnight refrigerator stock.

[3] = system: Staphylococcus aureus (SA); test: Same-day blood culture MADM drug resistance phenotyping; type: cell-based; conditions: SA in 6 μg/mL FOX, dark-field images over 3 hours (FIG. 10B)
Method: The MADM system used a custom microscope and pipetting robot, plus an evaluation system, as described herein. 32-channel disposable cassettes (FIG. 4A) enabled live microorganism immobilization for microscopy and fluid exchanges for different test agents. The microscope scanned 40 image fields in each flowcell channel, each channel having organisms extracted from about 3.5 μL of prepared inoculum.
Simulated blood specimens consisted of isolates spiked into 10 mL each of 29 aliquots of two short-fill CPD blood bank bags to make approximately 5 CFU/mL of bacterial target species, confirmed by quantitative culture. Spiked isolates included 14 Staphylococcus aureus (SA), 3 Pseudomonas aeruginosa (PA), or 12 non-target Gram-negative bacilli species. Dilution of each sample with 30 mL of modified TSB culture medium promoted growth. 20 additional control aliquots contained no spikes. 4-hour incubation at 35° C., followed with brief spin cleanup, ended with pellet resuspension into an electrokinetic buffer to make 1 mL samples for MADM system analysis. 20 μL sample aliquots were then pipetted into 14 cassette flowcells. A 5-minute low-voltage electrokinetic capture was performed to concentrate microorganisms on the lower surface of each flowcell where a capture coating immobilized the bacterial cells. […]

Enteric = test: MADM (BACcel) phenotype/sensitivity by growth analysis, surveillance mini-BAL; type: cell-based; conditions: Spec# 005-D7, BACcel ID Enteric, 1.26 × 10^5 CFU/ml
Method: (§3) Adult MICU patients with identified surrogate were included within 72 hours of intubation and if anticipated to require MV for >48 h. Moribund state or pregnancy were exclusions. Surveillance mini-BAL (Combicath, Plastimed) was performed on Day 1, 3, 5, 7 and 10 of MV. Samples were split and processed for both a) routine respiratory quantitative microbiological culture and sensitivity assays (>48 h result availability) and b) rapid (<8 hour) flowcell/surface-capture assays using the MADM system. Viable microorganisms were identified using growth analysis enhanced by a focused VAP antibody panel (S. aureus, P. aeruginosa, A. baumannii). Untypable organisms were also reported. Sensitivity was assessed using growth analysis. Attending physicians were blinded to MADM system results.
BAL sample were prepared, removing debris and separating microorganisms from other sample material. Sample microorganisms were introduced into a multichannel fluidic cassette as described elsewhere herein. […]
The automated digital microscopy system was used to perform darkfield imaging of 10 fields of view every 10 minutes for 180 minutes in each flowcell channel. […] Quantitation was performed by counting identified microorganisms and computing original specimen CFU/mL.

STAU = test: as above; type: cell-based, S. aureus; conditions: Spec# 008-D7, BACcel ID STAU, 1.11 × 10^6 CFU/ml
Method: as §3
(§4) BAL sample were prepared, removing debris and separating microorganisms from other sample material. Sample microorganisms were introduced into a multichannel fluidic cassette as described elsewhere herein. Bacteria were concentrated and retained on the lower surface of all flowcells using low-voltage electrical field (5 min) Antibody labeling of bacteria in flowcells was used to aid identification.
(§5) The automated digital microscopy system was used to perform darkfield imaging of 10 fields of view every 10 minutes for 180 minutes in each flowcell channel. Initial epifluorescence imaging was also performed for antibody detection. […] Identification consisted of probability scores based on microorganism morphology and growth rates. Antibody labeling identification data was also incorporated. Observed microorganisms were then classified as STAU, PSAE, or non-target. Antibiotic responses were used to aid identification when appropriate. Quantitation was performed by counting identified microorganisms and computing original specimen CFU/mL.

[4] = system: Staphylococcus aureus (STAU); test: MADM system resistance phenotype tests on respiratory specimens; type: cell-based; conditions: for resistance phenotype result (S/R), MADM: ID STAU, MRSA by FOX
Method: (ABCC). Concurrent quantitative culture was performed on specimens.
Specimen preparation used a brief procedure to release bacteria, reduce imaging background, and suspend bacteria in a low ionic strength buffer. […] We rejected 10 samples with heavy interfering background when dilution to OD600=0.3 yielded organism counts inadequate for analysis. We rejected 7 samples for other technical deficiencies. The remaining 62 specimens were tested using the MADM system.
(§6) 20 μL samples of prepared specimen were pipetted into independent flowcell channels and a low-voltage electrical field was applied for 5 minutes. The electrical field concentrated bacteria onto a functional surface coating that immobilized the bacteria on the lower flowcell surface. Each flowcell channel received only one type of test reagent solution that contained a selective agent if required (only for channels used to test AB, sulbactam 32 μg/mL).
(§7) The instrument acquired images at 10-minutes intervals for 180 minutes, using 10 fields of view in each flowcell channel through a 20× objective. Imaging used darkfield illumination. Identification variables included response to selective agents (AB with sulbactam), cell morphology, growth morphology, and growth rate.
(§8) Identification algorithms applied to each individual immobilized bacterial cell. The system measured the amount of change in mass over time to compute growth rates. Identification consisted of computing and combining probability scores for morphology, response to selective media, and growth rates to produce a receiver operating characteristic curve (ROC) to derive classification criteria.

Steno = test: MADM (BACcel) phenotype/sensitivity by growth analysis, surveillance mini-BAL; type: cell-based, S. maltophilia
Method: as §3, §4, §5

[5] = system: Acinetobacter spp. (ABCC); test: MADM system resistance phenotype tests on respiratory specimens; type: cell-based, Acinetobacter sp.; conditions: ABCC-positive specimen (specimen name not given); note: key: S: susceptible; R: resistant
Method: (§9) These specimens were prepped for introduction into the MADM system. The system performed quantitative ID for Staphylococcus aureus (STAU), Pseudomonas aeruginosa (PSAE), and Acinetobacter spp. (ABCC). Concurrent quantitative culture was performed on specimens. The MADM system performed resistance phenotype tests on STAU-containing specimens for cefoxitin (FOX) MRSA phenotyping and clindamycin (CLI) resistance. The system tested ABCC- and PSAE-containing specimens for amikacin (AN) and imipenem (IMP) resistance.
(§10) Specimen preparation used a brief procedure to release bacteria, reduce imaging background, and suspend bacteria in a low ionic strength buffer. […] The remaining 62 specimens were tested using the MADM system.
as §6, §7, §8

[6] = system: Acinetobacter spp. (ABCC); conditions: ABCC-positive specimen (specimen name not given); culture result
From the text: (§11) A total of 281 de-identified remnant respiratory specimens were collected from hospital and commercial sources. The specimens included 25 endotracheal aspirates (ETA) of unknown age obtained from a specimen vendor. Also included were 230 mini-bronchoalveolar lavage (mini-BAL) and 26 ETA specimens obtained from Denver Health Medical Center (DHMC). DHMC specimens were 7-21 days old. AST results were available for all mini-BAL specimens but not for ETA. Accompanying reports also included semi-quantitative ID used to select 92 bacteria-positive specimens for analysis using the MADM system. Targets included Pseudomonas aeruginosa, Acinetobacter baumannii complex, and Staphylococcus aureus. Controls used standard culturing methods (Cx).
as §9

[7] = system: Pseudomonas aeruginosa (PSAE); type: cell-based; conditions: ID PSAE, culture result; note: key: S: susceptible; R: resistant
From the text: as §11, §9

[8] = system: Pseudomonas aeruginosa (PSAE); test: MADM system resistance phenotype tests on respiratory specimens; type: cell-based; conditions: ID PSAE; note: key: S: susceptible; R: resistant
Method: as §9, §10, §6, §7, §8

## O=[N+]([O-])c1ccc(N[C@H]2C(O)O[C@H](CO)[C@@H](O)[C@@H]2O)c2nonc12 (some centres unmarked) [2-NBDG]
S. maltophilia
  fluorescent labeling: did not fluoresce
K. pneumoniae
  fluorescent labeling: fluorescently labeled
E. coli [1]
  fluorescent labeling: fluorescently labeled
S. aureus
  fluorescent labeling: did not fluoresce
H. influenzae
  fluorescent labeling: did not fluoresce

## CCN1/C(=C/C=C/c2oc3ccccc3[n+]2CC)Oc2ccccc21.[I-] [DiOC2(3)]
E. coli [2]
  red:green fluorescence ratios: No significant difference

## CO[C@@]1(NC(=O)Cc2cccs2)C(=O)N2C(C(=O)O)=C(COC(N)=O)CS[C@@H]21 [FOX, cefoxitin]
[3]
  clone growth in drug: growth indicating MRSA phenotype
Enteric
  Phenotype, sensitivity (growth in antibiotic): all growth
STAU
  Phenotype, sensitivity: FOX - R
[4]; specimen DH 425, Mini-BAL
  resistance phenotype result (S/R), MADM: R
[4]; specimen DH 427, Mini-BAL
  resistance phenotype result (S/R), MADM: S
[4]; specimen DH 439, Mini-BAL
  resistance phenotype result (S/R), MADM: R
[4]; specimen DH 440, BAL
  resistance phenotype result (S/R), MADM: S
[4]; specimen DH 457, BAL
  resistance phenotype result (S/R), MADM: S
[4]; specimen DH 485, BAL
  resistance phenotype result (S/R), MADM: S
[4]; specimen DH 509, BAL
  resistance phenotype result (S/R), MADM: S
[4]; specimen DH 514, Mini-BAL
  resistance phenotype result (S/R), MADM: S
[4]; specimen DH 543, BAL
  resistance phenotype result (S/R), MADM: S
[4]; specimen DH 550, BAL
  resistance phenotype result (S/R), MADM: S
[4]; specimen DH 556, Mini-BAL
  resistance phenotype result (S/R), MADM: S
[4]; specimen T12, ETA
  resistance phenotype result (S/R), MADM: R
[4]; the one discordant STAU sample
  MRSA/MSSA call by FOX in the MADM system: MRSA
Steno; Spec# 006-D1, BACcel ID Steno, 7.68 × 10^5 CFU/ml
  Phenotype, sensitivity (growth in antibiotic): growth, TZP-
Steno; Spec# 006-D3, BACcel ID Steno, 1.60 × 10^4 CFU/ml
  Phenotype, sensitivity (growth in antibiotic): growth, TZP-

## C[C@@H](O)[C@H]1C(=O)N2C(C(=O)O)=C(SCCN=CN)C[C@H]12 [IMP, imipenem]
[5]
  resistance phenotype result (S/R), MADM: S
[6]
  resistance phenotype result (S/R), Cx: S
[7]; specimen DH 430, Mini-BAL
  resistance phenotype result (S/R), Cx: S
[7]; specimen DH 554, BAL
  resistance phenotype result (S/R), Cx: S
[7]; specimen DH 641, Mini-BAL
  resistance phenotype result (S/R), Cx: S
[8]; specimen DH 430, Mini-BAL
  resistance phenotype result (S/R), MADM: S
[8]; specimen DH 554, BAL
  resistance phenotype result (S/R), MADM: S
[8]; specimen DH 641, Mini-BAL
  resistance phenotype result (S/R), MADM: S
